{
  "source": "ChEMBL document CHEMBL1130186",
  "about": "“Potent alpha 4 beta 1 peptide antagonists as potential anti-inflammatory agents” (J Med Chem, 1997)",
  "key": {"Integrin alpha-4/beta-1 [1]": {"target": "T1, Integrin alpha-4/beta-1 (Homo sapiens, UniProt P05556+P13612)", "T1 sequence (P05556 whole entry)": "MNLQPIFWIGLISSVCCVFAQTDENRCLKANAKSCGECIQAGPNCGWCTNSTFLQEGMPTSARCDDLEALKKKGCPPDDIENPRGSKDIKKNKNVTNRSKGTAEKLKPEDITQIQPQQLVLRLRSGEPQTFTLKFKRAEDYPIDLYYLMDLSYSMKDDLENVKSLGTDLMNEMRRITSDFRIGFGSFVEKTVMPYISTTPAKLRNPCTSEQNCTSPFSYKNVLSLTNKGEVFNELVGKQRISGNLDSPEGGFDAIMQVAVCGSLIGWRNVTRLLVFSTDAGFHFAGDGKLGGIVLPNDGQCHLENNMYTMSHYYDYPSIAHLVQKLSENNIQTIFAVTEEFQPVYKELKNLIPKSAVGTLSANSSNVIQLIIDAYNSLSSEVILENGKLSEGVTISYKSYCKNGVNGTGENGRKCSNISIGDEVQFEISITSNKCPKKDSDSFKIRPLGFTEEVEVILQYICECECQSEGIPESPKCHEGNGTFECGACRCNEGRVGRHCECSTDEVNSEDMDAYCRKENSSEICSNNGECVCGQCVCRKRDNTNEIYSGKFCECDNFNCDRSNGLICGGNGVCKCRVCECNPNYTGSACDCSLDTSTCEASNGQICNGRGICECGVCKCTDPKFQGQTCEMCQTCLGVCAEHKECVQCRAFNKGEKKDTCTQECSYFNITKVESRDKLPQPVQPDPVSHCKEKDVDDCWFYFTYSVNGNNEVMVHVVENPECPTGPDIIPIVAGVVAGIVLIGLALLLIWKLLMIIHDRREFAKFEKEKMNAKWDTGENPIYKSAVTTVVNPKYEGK", "T1 sequence (P13612 whole entry)": "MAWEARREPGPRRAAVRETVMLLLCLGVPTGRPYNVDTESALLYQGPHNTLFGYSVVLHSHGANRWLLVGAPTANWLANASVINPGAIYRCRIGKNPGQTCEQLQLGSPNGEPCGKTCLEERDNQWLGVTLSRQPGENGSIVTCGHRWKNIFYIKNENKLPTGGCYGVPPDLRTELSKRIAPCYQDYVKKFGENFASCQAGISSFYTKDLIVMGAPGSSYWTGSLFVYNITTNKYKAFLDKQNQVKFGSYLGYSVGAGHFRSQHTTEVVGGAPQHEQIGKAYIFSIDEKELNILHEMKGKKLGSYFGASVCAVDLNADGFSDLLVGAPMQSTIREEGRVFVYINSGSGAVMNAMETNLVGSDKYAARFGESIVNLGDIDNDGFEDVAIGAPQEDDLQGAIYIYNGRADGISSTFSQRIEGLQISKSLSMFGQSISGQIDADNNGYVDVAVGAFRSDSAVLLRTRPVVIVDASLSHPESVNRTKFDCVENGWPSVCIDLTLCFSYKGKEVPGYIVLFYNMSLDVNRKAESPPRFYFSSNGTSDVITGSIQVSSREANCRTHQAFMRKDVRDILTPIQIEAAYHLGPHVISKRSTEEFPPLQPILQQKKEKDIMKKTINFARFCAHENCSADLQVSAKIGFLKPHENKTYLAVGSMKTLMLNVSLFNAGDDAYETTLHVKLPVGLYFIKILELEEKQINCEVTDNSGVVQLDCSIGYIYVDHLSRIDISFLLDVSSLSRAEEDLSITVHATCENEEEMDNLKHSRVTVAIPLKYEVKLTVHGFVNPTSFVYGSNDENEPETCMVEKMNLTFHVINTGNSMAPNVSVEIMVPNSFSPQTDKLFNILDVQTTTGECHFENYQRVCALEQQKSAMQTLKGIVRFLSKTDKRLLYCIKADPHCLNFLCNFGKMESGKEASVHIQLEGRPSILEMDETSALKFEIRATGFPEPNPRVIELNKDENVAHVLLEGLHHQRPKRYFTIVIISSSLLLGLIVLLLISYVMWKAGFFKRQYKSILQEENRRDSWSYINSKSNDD", "experiment": "Inhibition of fluorescently labeled alpha4-beta1 positive Ramos cells binding to immobilized VCAM-1.", "format": "cell-based"}, "Integrin alpha-4/beta-1 [2]": {"target": "T1, Integrin alpha-4/beta-1", "experiment": "Inhibition of purified alpha-4 beta-1 binding to VCAM-1 was determined in an ELISA assay.", "format": "protein-complex assay"}},
  "note": "*1 amine or outer side, *2 acyl side, *3 side chain or, on linkers, in order; H or OH if unused. Where a SMILES comes first, the peptide text is derived from it. Bridges are numbered along the chain shown (N, C = ends). [ ]: non-standard residue; d: D form. The star is where a group is joined. X3 = O=C([C@H]1[C@H](c2ccc(O)cc2)CCN1[*:1])[*:2]; Fluorene(1-CO) = O=C(c1cccc2c1Cc1ccccc1-2)*; Tyr(3-F) = N[C@@H](Cc1ccc(O)c(F)c1)C(=O)O; Pip = O=C(O)[C@@H]1CCCCN1; 4Abz = Nc1ccc(C(=O)O)cc1; Inp = O=C(O)C1CCNCC1; Ava = NCCCCC(=O)O",
  "data": [
    {"smiles": "N=C(N)NCCC[C@H](NC(=O)[C@@H](N)Cc1ccc(O)cc1)C(=O)N[C@H]1CSSC[C@@H](C(=O)O)NC(=O)[C@@H]2CCCN2C(=O)[C@H](CCC(N)=O)NC1=O", "note": "(H-YRCQPC-OH; disulfide 3-6)", "values": [
      {"measurement": "IC50", "setting": "Integrin alpha-4/beta-1 [1]", "value": 9, "unit": "µM"},
      {"measurement": "IC50", "setting": "Integrin alpha-4/beta-1 [2]", "value": 0.05, "unit": "µM"}
    ]},
    {"smiles": "N[C@@H](Cc1ccccc1)C(=O)N[C@H]1CSSC[C@@H](C(=O)O)NC(=O)[C@@H]2CCCN2C(=O)[C@H](CO)NC1=O", "note": "(H-FCSPC-OH; disulfide 2-5)", "values": [
      {"measurement": "IC50", "setting": "Integrin alpha-4/beta-1 [1]", "value": 15, "unit": "µM"},
      {"measurement": "IC50", "setting": "Integrin alpha-4/beta-1 [2]", "value": 1.5, "unit": "µM"}
    ]},
    {"smiles": "CC(=O)N[C@@H](Cc1ccc(O)cc1)C(=O)N[C@H]1CSSC[C@@H](C(=O)O)NC(=O)[C@@H]2CCCN2C(=O)[C@H](C)NC1=O", "note": "(Ac-YCAPC-OH; disulfide 2-5)", "values": [
      {"measurement": "IC50", "setting": "Integrin alpha-4/beta-1 [1]", "value": 0.31, "unit": "µM"},
      {"measurement": "IC50", "setting": "Integrin alpha-4/beta-1 [2]", "value": 0.004, "unit": "µM"}
    ]},
    {"smiles": "CC(=O)N[C@@H](Cc1ccc(O)cc1)C(=O)N[C@H]1CSSC[C@@H](C(=O)O)NC(=O)[C@@H]2CCCCN2C(=O)[C@H](C)NC1=O", "note": "(Ac-YCA[Pip]C-OH; disulfide 2-5)", "values": [
      {"measurement": "IC50", "setting": "Integrin alpha-4/beta-1 [1]", "value": 0.02, "unit": "µM"},
      {"measurement": "IC50", "setting": "Integrin alpha-4/beta-1 [2]", "value": 0.001, "unit": "µM"}
    ]},
    {"smiles": "N[C@@H](Cc1ccc(O)cc1)C(=O)N[C@H]1CSSC[C@@H](C(=O)O)NC(=O)CCCCNC1=O", "note": "(H-YC[Ava]C-OH; disulfide 2-4)", "values": [
      {"measurement": "IC50", "setting": "Integrin alpha-4/beta-1 [1]", "value": 17, "unit": "µM"},
      {"measurement": "IC50", "setting": "Integrin alpha-4/beta-1 [2]", "value": 0.41, "unit": "µM"}
    ]},
    {"smiles": "C[C@@H]1NC(=O)[C@@H](NC(=O)[C@H](CCCN=C(N)N)NC(=O)[C@@H](N)Cc2ccc(O)cc2)CSSC[C@@H](C(=O)O)NC(=O)[C@@H]2CCCN2C1=O", "note": "(H-YRCAPC-OH; disulfide 3-6)", "values": [
      {"measurement": "IC50", "setting": "Integrin alpha-4/beta-1 [1]", "value": 8, "unit": "µM"},
      {"measurement": "IC50", "setting": "Integrin alpha-4/beta-1 [2]", "value": 0.06, "unit": "µM"}
    ]},
    {"smiles": "N[C@@H](Cc1ccc(O)c(F)c1)C(=O)N[C@H]1CSSC[C@@H](C(=O)O)NC(=O)[C@@H]2CCCN2C(=O)[C@H](CO)NC1=O", "note": "(H-[Tyr(3-F)]CSPC-OH; disulfide 2-5)", "values": [
      {"measurement": "IC50", "setting": "Integrin alpha-4/beta-1 [1]", "value": 0.5, "unit": "µM"},
      {"measurement": "IC50", "setting": "Integrin alpha-4/beta-1 [2]", "value": 0.008, "unit": "µM"}
    ]},
    {"smiles": "CC(=O)N[C@@H](Cc1ccc(O)cc1)C(=O)N[C@H]1CSSC[C@@H](C(=O)O)NC(=O)[C@@H]2CCCN2C(=O)[C@H]([C@@H](C)O)NC1=O", "note": "(Ac-YCTPC-OH; disulfide 2-5)", "values": [
      {"measurement": "IC50", "setting": "Integrin alpha-4/beta-1 [1]", "value": 0.32, "unit": "µM"},
      {"measurement": "IC50", "setting": "Integrin alpha-4/beta-1 [2]", "value": 0.005, "unit": "µM"}
    ]},
    {"smiles": "CC[C@H](C)[C@@H]1NC(=O)[C@H](C)NC(=O)[C@@H](NC(=O)[C@@H](N)Cc2ccc(O)cc2)CSSC[C@@H](C(=O)O)NC1=O", "note": "(H-YCAIC-OH; disulfide 2-5)", "values": [
      {"measurement": "IC50", "setting": "Integrin alpha-4/beta-1 [1]", "value": 0.94, "unit": "µM"},
      {"measurement": "IC50", "setting": "Integrin alpha-4/beta-1 [2]", "value": 0.023, "unit": "µM"}
    ]},
    {"smiles": "NCCCC[C@H](N)C(=O)N[C@H]1CSSC[C@@H](C(=O)O)NC(=O)[C@@H]2CCCN2C(=O)[C@H](CC(=O)O)NC1=O", "note": "(H-KCDPC-OH; disulfide 2-5)", "values": [
      {"measurement": "IC50", "setting": "Integrin alpha-4/beta-1 [1]", "value": 1000, "unit": "µM"},
      {"measurement": "IC50", "setting": "Integrin alpha-4/beta-1 [2]", "value": 250, "unit": "µM"}
    ]},
    {"smiles": "N[C@@H](Cc1ccc(O)cc1)C(=O)N[C@H]1CSSC[C@@H](C(=O)O)NC(=O)C2CCN(CC2)C1=O", "note": "(H-YC[Inp]C-OH; disulfide 2-4)", "values": [
      {"measurement": "IC50", "setting": "Integrin alpha-4/beta-1 [1]", "value": 1.5, "unit": "µM"},
      {"measurement": "IC50", "setting": "Integrin alpha-4/beta-1 [2]", "value": 0.031, "unit": "µM"}
    ]},
    {"smiles": "N[C@@H](Cc1ccc(O)cc1)C(=O)N[C@H]1CSSC[C@@H](C(=O)O)NC(=O)C2CCC(CC2)CNC1=O", "values": [
      {"measurement": "IC50", "setting": "Integrin alpha-4/beta-1 [1]", "value": 19, "unit": "µM"},
      {"measurement": "IC50", "setting": "Integrin alpha-4/beta-1 [2]", "value": 0.1, "unit": "µM"}
    ]},
    {"smiles": "O=C(N[C@H]1CSSC[C@@H](C(=O)O)NC(=O)[C@@H]2CCCN2C(=O)[C@H](CO)NC1=O)c1cccc2c1Cc1ccccc1-2", "note": "({Fluorene(1-CO)}-CSPC-OH; disulfide 1-4)", "values": [
      {"measurement": "IC50", "setting": "Integrin alpha-4/beta-1 [1]", "value": 1.5, "unit": "µM"},
      {"measurement": "IC50", "setting": "Integrin alpha-4/beta-1 [2]", "value": 0.14, "unit": "µM"}
    ]},
    {"smiles": "N[C@@H](Cc1ccc(O)cc1)C(=O)N[C@H]1CSSC[C@@H](C(=O)O)NC(=O)c2ccc(cc2)NC1=O", "note": "(H-YC[4Abz]C-OH; disulfide 2-4)", "values": [
      {"measurement": "IC50", "setting": "Integrin alpha-4/beta-1 [1]", "value": 4.2, "unit": "µM"},
      {"measurement": "IC50", "setting": "Integrin alpha-4/beta-1 [2]", "value": 0.16, "unit": "µM"}
    ]},
    {"smiles": "C[C@@H]1NC(=O)[C@@H](NC(=O)[C@@H](N)Cc2ccc(O)cc2)CSSC[C@@H](C(=O)O)NC(=O)[C@H](Cc2ccccc2)NC1=O", "note": "(H-YCAFC-OH; disulfide 2-5)", "values": [
      {"measurement": "IC50", "setting": "Integrin alpha-4/beta-1 [1]", "value": 182, "unit": "µM"},
      {"measurement": "IC50", "setting": "Integrin alpha-4/beta-1 [2]", "value": 2.8, "unit": "µM"}
    ]},
    {"smiles": "CC(=O)N1CC[C@@H](c2ccc(O)cc2)[C@@H]1C(=O)N[C@H]1CSSC[C@@H](C(=O)O)NC(=O)[C@@H]2CCCN2C(=O)[C@H](CO)NC1=O", "note": "(Ac-[X3]CSPC-OH; disulfide 2-5)", "values": [
      {"measurement": "IC50", "setting": "Integrin alpha-4/beta-1 [1]", "value": 0.008, "unit": "µM"},
      {"measurement": "IC50", "setting": "Integrin alpha-4/beta-1 [2]", "value": 0.0005, "unit": "µM"}
    ]},
    {"smiles": "CC(=O)N[C@@H](Cc1ccc(O)cc1)C(=O)N[C@H]1CSSC[C@@H](C(=O)O)NC(=O)[C@@H]2CCCN2C(=O)[C@H](CO)NC1=O", "note": "(Ac-YCSPC-OH; disulfide 2-5)", "values": [
      {"measurement": "IC50", "setting": "Integrin alpha-4/beta-1 [1]", "value": 0.12, "unit": "µM"},
      {"measurement": "IC50", "setting": "Integrin alpha-4/beta-1 [2]", "value": 0.002, "unit": "µM"}
    ]}
  ]
}
